Results reported in US20050009151A1, “Methods for the stereospecific and enantiomeric enrichment of beta-amino acids” (Pharmacia Corporation, priority 2003, published 2005).

Assays:
Format in all cases: biochemical
[1] = test system: Variovorax paradoxus β-aminotransferase; assay: Resolution of substrates with Variovorax paradoxus β-aminotransferase
Method: […] Reactions were typically run at 1 ml scale with gentle shaking at 26° C.
(§1) 10 ul of 2N HCl was added to a plastic screw capped vial and 90ul of sample was then added. The pH of the mixture confirmed to be below 4 and the mixture was centrifuged in a microcentrifuge at maximum speed for about 2 minutes to remove precipitated materials.
(§2) Samples were derivatized using Marfey's reagent, N•-(2,4-dinitro-5-fluorophenyl)-L-alaninamide. A stock solution of 10 mg/mL in acetone of this reagent was prepared. Either 20 or 40 ul of bioconversion sample was added to 20 ul 1.3 M KHCO3. To this was added 80 ul of the stock reagent solution, the vial sealed tightly, and heated at 70° C. for 10 minutes. As needed, after cooling to room temperature, the heated samples were centrifuged to remove solids. The supernatants were analyzed using an Eclipse XDB-C8 column, 4.6×150 mm, eluting with methanol gradient in water, from 50% methanol to 100% methanol. Both solvents were acidified with 0.1% trifluoroacetic acid.
(§3) For resolution experiments, the area of the peak consumed (converted to keto acid) was compared to the area remaining of the unconsumed peak, on the assumption that none was converted.

[2] = test system: β-aminotransferase enzyme from Variovorax paradoxus; assay: D-β-aminotransferase amino donor specificity; details: for substrate for the enzyme (amino donor): 2 mg/ml amino donor, 10 mg/ml α-ketoglutarate, 1 hour, 37° C.
Method: The same preparation of semi-purified β-aminotransferase enzyme from Variovorax paradoxus was then assayed using a-ketoglutarate as the keto acceptor, in an assay consisting of 100 mM potassium phosphate, 10 mg/ml α-ketoglutarate, 2 mg/ml amino donor and 0.1 mM pyridoxal phosphate, at pH 8.0. The reactions were run at 37° C. with mild stirring for 1 hour. At 1 hour reaction time, 0.1 ml samples were withdrawn, acidified with addition of 0.1 ml 0.1N HCl, and centrifuged. The supernatant solution was collected into HPLC sample vials. Conversion of an amino acid to the corresponding ketone was quantified using reverse phase HPLC. The following amino acids (as an amino donor) were screened for activity: α-(D)-phenylalanine, α-(L)-phenylalanine, β-(D)-phenylalanine, β-(L)-phenylalanine, (D)-3-amino-5-phenylpentanoic acid, and (L)-3-amino-5-phenylpentantoic acid.

[3] = test system: β-aminotransferase enzyme from Variovorax paradoxus (CC-KGbPHe-I14); assay: D-β-aminotransferase keto acid substrate specificity; details: rate of conversion of D-β-phenylalanine to 3-keto-3-phenylpropionic acid as percent of the rate using α-ketoglutarate; 10 mg/ml α-keto acceptor, 1 hour, 37° C.
Method: Semi-purified β-aminotransferase enzyme from Variovorax paradoxus (CC-KGbPHe-I14) was assayed using D-β-phenylalanine as the amino donor, in an assay consisting of 100 mM potassium phosphate, 2 mg/ml DL-β-phenylalanine, 10 mg/ml α-keto acceptor and 0.1 mM pyridoxal phosphate, at pH 8.0. The reactions were run at 37° C. with mild stirring for 1 hour. At 1 hour reaction time, 0.1 ml samples were withdrawn, acidified with addition of 0.1 ml 0.1N HCl, and centrifuged. The supernatant solution was collected into HPLC sample vials. Conversion of DL-β-phenylalanine to 3-keto-3-phenylpropionate was quantified using reverse phase HPLC. The following keto acids were screened for activity: α-ketoglutaric acid, oxaloacetic acid, pyruvic acid, 3-oxoadipic acid, 2-oxoadipic acid, 1,3-acetonedicarboxylic acid, and 4-ketopimelic acid. The relative rates of conversion of D-β-phenylalanine to 3-keto-3-phenylpropionic acid using the various keto acceptors is reported as percent of the rate using α-ketoglutarate, the experimentally determined preferred acceptor.

[4] = test system: β-aminotransferase from Alcaligenes eutrophus; assay: Resolution of substrates with cell lysate from Alcaligenes eutrophus
Method: (§4) A buffer consisting of 0.3M Tricine, 15 mM MgSO4, enough pyridoxal phosphate to impart a pale yellow color and 0.3M sodium glutamate (for deamination reactions) or 0.3 M 2-ketoglutarate monopotassium salt (for synthesis reactions) was prepared.
(§5) One part buffer was combined with two parts lysate and this mixture was then added to pre-weighed substrate to give a concentration of 1 mg/ml substrate. Reactions were typically run at 1 ml scale with gentle shaking at 26° C.
as §1, §2, §3

[5] = test system: Alcaligenes eutrophus L-β-aminotransferase; assay: Substrate specificity of Alcaligenes eutrophus L-β-aminotransferase (crude cell homogenate); details: for MSB Culture Extract D(S)-b-Phe consumed at t = 1 Hr / MSB Culture Extract L(R)-b-Phe consumed at t = 1 Hr: cells grown in MSB; for MSB Culture Extract D(S)-b-Phe consumed at t = 1 Hr / MSB Culture Extract L(R)-b-Phe consumed at t = 1 Hr / NB Culture Extract of Alcaligenes eutrophus D(S)-b-Phe consumed at t = 1 Hr / NB Culture Extract of Alcaligenes eutrophus L(R)-b-Phe consumed at t = 1 Hr: keto acceptor with or without PLP as labelled; for NB Culture Extract of Alcaligenes eutrophus D(S)-b-Phe consumed at t = 1 Hr / NB Culture Extract of Alcaligenes eutrophus L(R)-b-Phe consumed at t = 1 Hr: cells grown in NB
Method: Cell-free homogenates were used in assays designed to determine substrate specificity. The assays contained: 0.1-0.3 mg/ml protein, 10 mg/ml keto acceptor, 1 mg/ml amino donor, 0.1 mM pyridoxal phosphate, and 100 mM potassium phosphate, at pH 8.0. The reactions were run at 37° C. with gentle stirring for 1 hour. At 1 hour reaction time, 0.1 ml samples were withdrawn, acidified with addition of 0.1 ml 0.1N HCl, and centrifuged. The supernatant solution was collected into HPLC sample vials. Conversion of amino acid to the corresponding ketone was quantified using reverse phase HPLC. Enzymatic activity was measured as the rate of conversion of amino donor in a one hour period. In a series of reactions, the enzymatic activity was determined with the following variables: inclusion or omission of pyridoxal phosphate, using α-ketoglutarate or pyruvate as a keto acceptor, and (D)- or (L)-β-phenylalanine as amino donor.

[6] = test system: Variovorax paradoxus β-aminotransferase; assay: Synthesis of β-amino acid from β-keto acid with Variovorax paradoxus β-aminotransferase; details: cell lysate, 19 hours
Method: as §4, §5, §1, §2
For synthesis experiments, in which β-keto acid was converted to β-amino acid, the area of the peak(s) was compared to a standard curve derived for β-phenylalanine.

Compound: N[C@H](CC(=O)O)c1ccc([N+](=O)[O-])cc1 [p-nitro-β-phenylalanine]
- Peak consumption (later eluting peak) ([1]; sodium sulfate purified beta-aminotransferase, 30 minutes): 98%
- Peak consumption (later eluting peak) ([1]; sodium sulfate purified beta-aminotransferase, 30 minutes, listed as p-nitro-α-phenylalanine): approximately 98%
- later eluting peak remaining ([1]; sodium sulfate purified beta-aminotransferase, after 1 hour): not detected
- change in the concentration of the early eluting stereoisomer ([1]; sodium sulfate purified beta-aminotransferase, after 18 hours): no detectable change

Compound: NC1CCCCC1C(=O)O (stereo not shown) [2-aminocyclohexanecarboxylic acid]
- Peak consumption (later eluting peak(s)) ([1]; cell lysate, 19 hours): >99%

Compound: N[C@H](CCc1ccccc1)CC(=O)O [(D)-3-amino-5-phenylpenantoic acid, D- or (R)-3-amino-5-phenyl-pentanoic acid]
- substrate for the enzyme (amino donor) [2]: substrates for the enzyme

Compound: O=C(O)CCC(=O)CC(=O)O [3-Oxoadipic Acid]
- Relative Activity [3]: 6%

Compound: N[C@H](CC(=O)O)c1ccccc1 (racemic) [β-phenylalanine]
- Peak consumption (later eluting peak) ([1]; cell lysate, 5 hours): >99%
- Peak consumption (later eluting peak) ([1]; cell lysate, 23 hours): 82%
- change in the concentration of the later eluting stereoisomer ([4]; after one day): no detectable change
- earlier eluting peak remaining ([4]; after one day): not detectable

Compound: NC(CC(=O)O)c1ccsc1 (stereo not shown) [3-amino-3-(3-thienyl)propanoic acid]
- Peak consumption (earlier eluting peak) ([4]; 21 hours): 82%
- Peak consumption (earlier eluting peak) ([4]; 22 hours): 82%

Compound: NC(CC(=O)O)c1ccc2ccccc2c1 (stereo not shown) [3-amino-3-(2-naphthyl)propanoic acid]
- Peak consumption (later eluting peak) ([1]; cell lysate, 5 hours): 50%

Compound: N[C@@H](CCc1ccccc1)CC(=O)O [(L)-3-amino-5-phenylpentantoic acid, L- or (S)-3-amino-5-phenyl-pentanoic acid]
- substrate for the enzyme (amino donor) [2]: Only β-(D)-phenylalanine and (D)-3-amino-5-phenylpenantoic acid were substrates

Compound: NC(CC(=O)O)c1ccco1 (stereo not shown) [3-amino-3-(2-furyl)propanoic acid]
- Peak consumption (earlier eluting peak) ([4]; 21 hours): 73%
- Peak consumption (earlier eluting peak) ([4]; 21 hours, listed as 3-amino-3-(2-furyl) propanoic acid): 73%

Compound: O=C(O)CCC(=O)CCC(=O)O [4-Ketopimelic Acid]
- Relative Activity [3]: 0%

Compound: O=C(O)CC(=O)C(=O)O [Oxaloacetic Acid]
- Relative Activity [3]: 54%

Compound: CC(=O)C(=O)O [Pyruvic Acid]
- MSB Culture Extract D(S)-b-Phe consumed at t = 1 Hr [5]: 7.789
- MSB Culture Extract L(R)-b-Phe consumed at t = 1 Hr [5]: 45.1865
- NB Culture Extract of Alcaligenes eutrophus D(S)-b-Phe consumed at t = 1 Hr [5]: 3.37
- NB Culture Extract of Alcaligenes eutrophus L(R)-b-Phe consumed at t = 1 Hr [5]: 48.61
- Relative Activity [3]: 14%

Compound: NC(CC(=O)O)c1ccc(Oc2ccccc2)cc1 (stereo not shown) [3-amino-3-(4-phenoxyphenyl)propanoic acid]
- Peak consumption (later eluting peak) ([1]; cell lysate, 5 hours): 58%

Compound: CCCC(=O)CC(=O)O [3-Oxohexanoic acid]
- product stereoisomer peak observed [6]: only later eluting peak was observed
- 3-aminohexanoic acid formed, using beta-phenylalanine as standard ([6]; approximately 50 mM substrate, approximately 60 mM glutamic acid): approximately 1 mg/mL

Compound: CC(C)C(N)CC(=O)O (stereo not shown) [3-amino-4-methylpentanoic acid]
- Peak consumption (later eluting peak) ([1]; cell lysate, 48 hours): 65%
- Peak consumption (later eluting peak) ([1]; cell lysate, 48 hours, listed as 3-amino-4-methylpentanoic): 65%

Compound: N[C@@H](CC(=O)O)c1ccccc1 [β-(D)-phenylalanine, D- or (S)-3-amino-3-phenylpropionic acid]
- substrate for the enzyme (amino donor) [2]: substrates for the enzyme
- preference of the enzyme for the enantiomer ([2]; enzyme preferring α-ketoglutarate as amino acceptor, no activity on the L-enantiomer): 100%

Compound: CCCC(N)CC(=O)O (stereo not shown) [3-aminohexanoic acid]
- Peak consumption (later eluting peak) ([1]; cell lysate, 1 hour): >99%

Compound: N[C@H](CC(=O)O)c1ccc(F)cc1 [p-fluoro-β-phenylalanine]
- Peak consumption (later eluting peak) ([1]; cell lysate, 23 hours): 82%

Compound: N[C@@H](Cc1ccccc1)C(=O)O [α-(L)-phenylalanine]
- substrate for the enzyme (amino donor) [2]: Only β-(D)-phenylalanine and (D)-3-amino-5-phenylpenantoic acid were substrates

Compound: NC(CC(=O)O)c1cccnc1 (stereo not shown) [3-amino-3-(3-pyridyl)propanoic acid]
- Peak consumption (later eluting peak) ([1]; cell lysate, 5 hours): >95%

Compound: COc1ccc([C@H](N)CC(=O)O)cc1 [p-methoxy-β-phenylalanine]
- Peak consumption (later eluting peak) ([1]; cell lysate, 23 hours): 80%

Compound: NC(CC(=O)O)C1CC1 (stereo not shown) [3-amino-3-cyclopropylpropanoic acid]
- early eluting peak observed ([1]; cell lysate, 0.225 M substrate, 0.45 M alpha-ketoglutarate, pH 8.1, 18.2 hours): 99.5%
- Peak consumption (later eluting peak) ([1]; cell lysate, 22 hours): 98%
- Peak consumption (earlier eluting peak) ([4]; 22 hours): approximately 42%
- Peak consumption (earlier eluting peak) ([4]; 22 hours, listed as 3-amino-3-cyclopropyl propanoic acid): 42%

Compound: NC(CC(=O)O)C1CCCCC1 (stereo not shown) [3-amino-3-cyclohexylpropanoic acid]
- Peak consumption (later eluting peak) ([1]; cell lysate, 2 hours): >99%

Compound: O=C(O)CCC(=O)C(=O)O [α-ketoglutarate]
- MSB Culture Extract D(S)-b-Phe consumed at t = 1 Hr [5]: 0.966
- MSB Culture Extract L(R)-b-Phe consumed at t = 1 Hr [5]: 6.9281
- NB Culture Extract of Alcaligenes eutrophus D(S)-b-Phe consumed at t = 1 Hr [5]: 0.00
- NB Culture Extract of Alcaligenes eutrophus L(R)-b-Phe consumed at t = 1 Hr [5]: 3.41
- Relative Activity [3]: 100%

Compound: O=C(O)CCCC(=O)C(=O)O [2-Oxoadipic Acid]
- Relative Activity [3]: 0.6%

Compound: N[C@H](CC(=O)O)c1cccc([N+](=O)[O-])c1 [m-nitro-β-phenylalanine]
- Peak consumption (later eluting peak) ([1]; cell lysate, 23 hours): 95%

Compound: N[C@H](CC(=O)O)c1ccccc1F [o-fluoro-β-phenylalanine]
- Peak consumption (later eluting peak) ([1]; cell lysate, 67 hours): 99%
- Peak consumption (later eluting peak) ([1]; cell lysate, 67 hours, listed as o-fluoro-α-phenylalanine): 99%

Compound: N[C@H](Cc1ccccc1)C(=O)O [α-(D)-phenylalanine]
- substrate for the enzyme (amino donor) [2]: Only β-(D)-phenylalanine and (D)-3-amino-5-phenylpenantoic acid were substrates

Compound: NC(CC(=O)O)c1cc2ccccc2o1 (stereo not shown) [3-amino-3-(2-benzofuryl))propanoic acid]
- Peak consumption (later eluting peak) ([1]; cell lysate, 5 hours): 98%

Compound: O=C(O)CC(=O)CC(=O)O [1,3-Acetonedicarboxylic Acid]
- Relative Activity [3]: 0%

Compound: N[C@H](CC(=O)O)c1ccccc1 [β-(L)-phenylalanine, L- or (R)-3-amino-3-phenylpropionic acid]
- substrate for the enzyme (amino donor) [2]: Only β-(D)-phenylalanine and (D)-3-amino-5-phenylpenantoic acid were substrates
- preference of the enzyme for the enantiomer ([5]; enzyme preferring pyruvic acid as amino acceptor, no activity on the D-enantiomer): 100%
